The results in this text go back to patent US20250109139A1, “TRICYCLIC COMPOUND, AND PREPARATION METHOD THEREFOR AND USE THEREOF” (SHANGHAITECH UNIVERSITY, priority 2022, published 2025).

Like-named read-outs stand apart in the source and are kept apart here.

The target in experiment [1] is T1, dopamine D2 receptors (Homo sapiens (Human), UniProt P14416). Nature of the experiment: Dopamine D2 receptor β-arrestin2 BRET (recruitment). The class given is cell-based. The settings on record: for Emax: relative to endogenous ligand dopamine, read-out: β-arrestin2 BRET Emax % ± SEM. As to the method: (§1) To examine the downstream G-protein signaling pathway mediated by dopamine D2 receptors, on the first day, a 6 cm culture dish was used for transfection with 1 μg of dopamine D2 receptors, 1 μg of Gαi1 containing C-terminal seaweed luciferase (Gαi1-Rluc), 1 μg of Gβ3, 1 μg of Gγ9 containing C-terminal green fluorescent protein (Gγ9-GFP) mixed with 16 μL of PEI. At the same time, in order to examine the downstream β-arrestin2 signaling pathway mediated by dopamine D2 receptors, on the first day, a 6 cm culture dish was used for transfection with […] of dopamine D2 receptors containing C-terminal seaweed luciferase (D2-Rluc), […] of G protein-coupled receptor kinase 2 (GRK2), […] of β-arrestin2 containing N-terminal green fluorescent protein (GFP2-ARRB2) mixed with 14 μL of PEI. The next day, the confluent cells of a 6 cm culture dish were digested and reseeded into a 96-well plate with 100 μL of culture medium added to each well. On the third day, the drugs were added for test. The 96-well plate was taken out from the cell incubator to decant the culture medium, 40 μL of the substrate coelenterazine 400a (final concentration of 5 μM) was added to each well, and then 20 μL of different drugs were added sequentially from left to right to ensure that the final concentration of the drug decreased gradually from bottom to top, with two replicates per treatment. Finally, the prepared samples were loaded on machine for test. The machine readout value reflected the recruitment of β-arrestin2 to the membrane or the dissociation of G protein trimer. The former indicated the degree of activation of the β-arrestin2 signaling pathway downstream of the dopamine D2 receptors, and the latter indicated the degree of activation of the G protein signaling pathway downstream of the dopamine D2 receptors.
T1 sequence (P14416 whole entry): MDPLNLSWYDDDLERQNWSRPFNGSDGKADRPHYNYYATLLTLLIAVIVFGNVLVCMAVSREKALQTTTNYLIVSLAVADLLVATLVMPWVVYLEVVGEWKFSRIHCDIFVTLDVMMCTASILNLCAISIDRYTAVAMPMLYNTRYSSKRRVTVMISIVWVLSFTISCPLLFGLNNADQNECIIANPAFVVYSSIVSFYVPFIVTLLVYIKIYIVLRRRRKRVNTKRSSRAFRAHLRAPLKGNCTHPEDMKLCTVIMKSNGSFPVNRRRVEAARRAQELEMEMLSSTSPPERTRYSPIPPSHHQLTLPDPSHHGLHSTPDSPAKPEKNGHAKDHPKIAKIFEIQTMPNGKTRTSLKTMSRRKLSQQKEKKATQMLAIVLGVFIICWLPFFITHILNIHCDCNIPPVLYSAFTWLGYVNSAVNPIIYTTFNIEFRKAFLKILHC
On the technique in general: In BRET a luciferase serves as donor, and the signal depends on an acceptor being close.

Experiment [2] deals with T1, dopamine D2 receptors. The experiment is described as follows: Dopamine D2 receptor Gαi1 BRET (G protein trimer dissociation). The settings on record: for Emax: relative to endogenous ligand dopamine, read-out: Gαi1 BRET Emax % ± SEM. The class given is cell-based. As to the method:
as §1

For experiment [3], the target named is T1, dopamine D2 receptors. The experiment is described as follows: Dopamine D2 receptor radioligand competition binding assay ([3H]-Methylspiperone). Conditions: [3H]-Methylspiperone 0.3 to 0.5 nM, 293T membranes. As to the method:
The affinity of the compounds of the present disclosure for dopamine D2 receptors was determined by a radioligand competition binding assay.
In the first step, a cell membrane component containing specific dopamine D2 receptors was prepared. A 10 cm culture dish was used for transfection with […] of dopamine D2 receptors and 40 μL of polyethylenimine (PEI hereafter). […] A vacuum pump was used to suck off the culture medium, 3 mL of lysis buffer was added to each culture dish, and the cells were placed in a 4° C. cold room for 10 minutes. After the cells were detached, the cells were transferred to a 15 mL centrifuge tube and centrifuged at 1500 rpm for 5 minutes at 4° C., and the supernatant was discarded. The cell pellet was transferred to a tissue homogenizer, and 3 mL of lysis buffer was added and fully ground until the cells were broken. Then, cell suspension was equally aliquoted into several EP tubes, centrifuged at 12000 rpm for 5 minutes at 4° C., and the supernatant was discarded. The precipitate was the cell membrane component containing the dopamine D2 receptors.
First, a standard binding buffer was added to the cell membrane component containing the dopamine D2 receptors, and the cell membrane was disrupted and resuspended with an electric tissue homogenizer. 30 μL of membrane protein suspension was added to each well of a 96-well plate. Then, 30 μL of different drugs were added to the 96-well plate sequentially from bottom to top to ensure that the final drug concentrations were 10^−5 M, 10^−6 M, 10^−7 M, 10^−8 M, 10^−9 M, and 0 M, with two replicates per treatment. Next, 30 μL of [3H]-Methylspiperone was added to each well of the 96-well plate. The plate was incubated at room temperature in the dark for 2 hours. Detection was conducted. The machine readout value reflected the amount of [3H]-Methylspiperone bound on the membrane, and after further data processing, the affinity Ki values of different compounds for the dopamine D2 receptors were obtained.
Background: Displacement assays read how much labelled ligand stays bound in the presence of the test substance.

[4] abbreviates: unit printed only in Cariprazine cell, read-out: β-arrestin2 BRET EC50.
Where [5] appears, read: unit printed only in Cariprazine cell, read-out: Gαi1 BRET EC50.
The mark [6] stands for this setting: read-out: Gαi1 BRET pEC50 ± SEM (converted).

One may read the Emax as the size of the effect at its maximum, as opposed to the concentration needed. With `COc1cccc2c3c(oc12)CN(CCCCOc1ccc2ccc(=O)n(C)c2c1)CC3` [I-A4, 7-(4-(8-methoxy-3,4-dihydrobenzofuro[2,3-c]pyridin-2(1H)-yl)butoxy)-1-methylquinolin-2(1H)-one], at dopamine D2 receptors [1], the “β-arrestin2 BRET pEC50 ± SEM” value is on record as “(7.17 ± 0.18)” and the Emax is 65%. Further, the EC50 on dopamine D2 receptors [1] (setting [4]) came to 81.2 nM. Besides, at dopamine D2 receptors [2], the “Gαi1 BRET pEC50 ± SEM” value is “(6.16 ± 0.06)” and the Emax was determined as 55%. Also, on dopamine D2 receptors [2] (setting [5]), the EC50 was 709 nM.

Consider `COc1cccc2c3c(oc12)CN(CCNC(=O)C1CCOCC1)CC3` [I-A14, N-(2-(8-methoxy-3,4-dihydrobenzofuro[2,3-c]pyridin-2(1H)-yl)ethyl)tetrahydro-2H-pyran-4-carboxamide], for which the Ki on dopamine D2 receptors [3] (read-out: Affinity Ki) came to 752 nM.

For `CCOc1cccc2c3c(oc12)CN(CC[C@H]1CC[C@H](NC(=O)N(C)C)CC1)CC3` [I-A17, 3-(trans-4-(2-(8-ethoxy-3,4-dihydrobenzofuro[2,3-c]pyridin-2(1H)-yl)ethyl)cyclohexyl)-1,1-dimethylurea], the Emax amounted to 29% at dopamine D2 receptors [1] and 49% at dopamine D2 receptors [2]. In addition, the EC50 was 6.7 nM on dopamine D2 receptors [1] (setting [4]), 3.67 nM at dopamine D2 receptors [2] (setting [6]) and 4.37 nM on dopamine D2 receptors [2] (setting [5]).

With `CCOc1cccc2c3c([nH]c12)CN(CCCCOc1ccc2ccc(=O)[nH]c2c1)CC3` [I-B2, 7-(4-(8-ethoxy-1,3,4,9-tetrahydro-2H-pyrido[3,4-b]indol-2-yl)butoxy)quinolin-2(1H)-one], the results for the Ki at dopamine D2 receptors [3] (read-out: Affinity Ki) and on dopamine D2 receptors [3] (read-out: Affinity pKi ± SEM (converted)) were 78.9 nM and 77.6 nM, respectively.

For `CCOc1cccc2c3c([nH]c12)CN(CCCOc1ccc2ccc(=O)[nH]c2c1)CC3` [I-B4, 7-(3-(8-ethoxy-1,3,4,9-tetrahydro-2H-pyrido[3,4-b]indol-2-yl)propoxy)quinolin-2(1H)-one], at dopamine D2 receptors [3], the “Affinity pKi ± SEM” value is recorded as “(6.13 ± 0.26)”. For the same compound, the Ki on dopamine D2 receptors [3] (read-out: Affinity Ki) worked out at 728 nM.

For the compound `COc1cccc2c3c([nH]c12)CN(CCCOc1ccc2c(c1)NC(=O)CC2)CC3` [I-B5, 7-(3-(8-methoxy-1,3,4,9-tetrahydro-2H-pyrido[3,4-b]indol-2-yl)propoxy)-3,4-dihydroquinolin-2(1H)-one], the Emax at dopamine D2 receptors [1] is 76%; on dopamine D2 receptors [2], 35%. The EC50 at dopamine D2 receptors [1] (setting [4]) stood at 6.53 nM; at dopamine D2 receptors [2] (setting [5]) it was 43.6 nM.

Turning to `CCOc1cccc2c3c([nH]c12)CN(CCCOc1ccc2c(c1)NC(=O)CC2)CC3` [I-B6, 7-(3-(8-ethoxy-1,3,4,9-tetrahydro-2H-pyrido[3,4-b]indol-2-yl)propoxy)-3,4-dihydroquinolin-2(1H)-one], the “Affinity pKi ± SEM” value at dopamine D2 receptors [3] is recorded as “(6.58 ± 0.41)”. For the same compound, the Ki on dopamine D2 receptors [3] (read-out: Affinity Ki) worked out at 266 nM.

As for `COc1cccc2c3c([nH]c12)CN(CC1(O)CCCCC1)CC3` [I-B9, 1-((8-methoxy-1,3,4,9-tetrahydro-2H-pyrido[3,4-b]indol-2-yl)methyl)cyclohexan-1-ol], the figures for the Emax on dopamine D2 receptors [1] and at dopamine D2 receptors [2] were 51% and 14%, respectively. The figures for the EC50 at dopamine D2 receptors [1] (setting [4]), at dopamine D2 receptors [2] (setting [6]) and on dopamine D2 receptors [2] (setting [5]) were 133 nM, 61.7 nM and 43.3 nM, respectively.

Take `COc1cccc2c1cc1n2CCN(C/C=C/COc2ccc3c(c2)NC(=O)CC3)C1` [I-C6, (E)-7-((4-(9-methoxy-3,4-dihydropyrazino[1,2-a]indol-2(1H)-yl)but-2-en-1-yl)oxy)-3,4-dihydroquinolin-2(1H)-one]: the figures for the Emax on dopamine D2 receptors [1] and on dopamine D2 receptors [2] were 92% and 49%, respectively. Moreover, the EC50 on dopamine D2 receptors [1] (setting [4]) amounted to 2.45 nM; on dopamine D2 receptors [2] (setting [5]), 276 nM.

Take `CCOc1cccc2c1cc1n2CCN(CCCCOc2ccc3ccc(=O)[nH]c3c2)C1` [I-C10, 7-(4-(9-ethoxy-3,4-dihydropyrazino[1,2-a]indol-2(1H)-yl)butoxy)quinolin-2(1H)-one]: the results for the Emax on dopamine D2 receptors [1] and on dopamine D2 receptors [2] were 49% and 20%, respectively. For the same compound, the EC50 on dopamine D2 receptors [1] (setting [4]) was 828 nM; on dopamine D2 receptors [2] (setting [6]), 120 nM; on dopamine D2 receptors [2] (setting [5]), 118 nM.

For the compound `CCOc1cccc2c1cc1n2CCN(CC[C@H]2CC[C@H](NC(=O)N(C)C)CC2)C1` [I-C11, 3-(trans-4-(2-(9-ethoxy-3,4-dihydropyrazino[1,2-a]indol-2(1H)-yl)ethyl)cyclohexyl)-1,1-dimethylurea], the Emax on dopamine D2 receptors [1] is 45%; on dopamine D2 receptors [2], 23%. The results for the EC50 on dopamine D2 receptors [1] (setting [4]) and at dopamine D2 receptors [2] (setting [5]) were 128 nM and 39.8 nM, respectively.

`COc1cccc2c1cc1n2CCN(CC2(O)CCCCC2)C1` [I-C12, 1-((9-methoxy-3,4-dihydropyrazino[1,2-a]indol-2(1H)-yl)methyl)cyclohexan-1-ol]: the figures for the Emax on dopamine D2 receptors [1] and on dopamine D2 receptors [2] were 52% and 66%, respectively. In addition, the EC50 at dopamine D2 receptors [1] (setting [4]) is 54.4 nM; on dopamine D2 receptors [2] (setting [6]), 38.9 nM; on dopamine D2 receptors [2] (setting [5]), 23.4 nM.

Regarding `COc1cccc2c1nc1n2CCN(CCCCOc2ccc3ccc(=O)[nH]c3c2)C1` [I-D1, 7-(4-(9-methoxy-3,4-dihydrobenzo[4,5]imidazo[1,2-a]pyrazin-2(1H)-yl)butoxy)quinolin-2(1H)-one], the Emax is 100% on dopamine D2 receptors [1] and 77% at dopamine D2 receptors [2]. Moreover, the EC50 on dopamine D2 receptors [1] (setting [4]) is 56 nM; on dopamine D2 receptors [2] (setting [6]), 263 nM; at dopamine D2 receptors [2] (setting [5]), 267 nM.

For the compound `COc1cccc2c1nc1n2CCN(CCCCOc2ccc3c(c2)NC(=O)CC3)C1` [I-D2, 7-(4-(9-methoxy-3,4-dihydrobenzo[4,5]imidazo[1,2-a]pyrazin-2(1H)-yl)butoxy)-3,4-dihydroquinolin-2(1H)-one], the EC50 at dopamine D2 receptors [1] (read-out: β-arrestin2 BRET pEC50 ± SEM (converted)) is 69.2 nM; at dopamine D2 receptors [1] (setting [4]), 70.1 nM; on dopamine D2 receptors [2] (setting [6]), 324 nM; at dopamine D2 receptors [2] (setting [5]), 355 nM. The Emax at dopamine D2 receptors [1] was found to be 106%; on dopamine D2 receptors [2], 71%.

Regarding `COc1cccc2c1nc1n2CCN(CCCOc2ccc3ccc(=O)[nH]c3c2)C1` [I-D3, 7-(3-(9-methoxy-3,4-dihydrobenzo[4,5]imidazo[1,2-a]pyrazin-2(1H)-yl)propoxy)quinolin-2(1H)-one], the Emax at dopamine D2 receptors [1] worked out at 97%; at dopamine D2 receptors [2], 71%. In addition, the EC50 at dopamine D2 receptors [1] (setting [4]) worked out at 18.3 nM; at dopamine D2 receptors [2] (setting [5]) it was 130 nM.

`COc1cccc2c1nc1n2CCN(CCCOc2ccc3c(c2)NC(=O)CC3)C1` [I-D4, 7-(3-(9-methoxy-3,4-dihydrobenzo[4,5]imidazo[1,2-a]pyrazin-2(1H)-yl)propoxy)-3,4-dihydroquinolin-2(1H)-one]: the Emax at dopamine D2 receptors [1] worked out at 89%; at dopamine D2 receptors [2], 81%. The EC50 at dopamine D2 receptors [1] (setting [4]) stood at 33.6 nM; at dopamine D2 receptors [2] (setting [5]) it was 159 nM.

Regarding `COc1cccc2c1nc1n2CCN(C/C=C/COc2ccc3c(c2)NC(=O)CC3)C1` [I-D5, (E)-7-((4-(9-methoxy-3,4-dihydrobenzo[4,5]imidazo[1,2-a]pyrazin-2(1H)-yl)but-2-en-1-yl)oxy)-3,4-dihydroquinolin-2(1H)-one], the Emax at dopamine D2 receptors [1] was 66%; on dopamine D2 receptors [2], 46%. Further, the results for the EC50 on dopamine D2 receptors [1] (setting [4]), at dopamine D2 receptors [2] (setting [6]) and at dopamine D2 receptors [2] (setting [5]) were 38.8 nM, 162 nM and 160 nM, respectively.

For `COc1cccc2c1nc1n2CCN(CC2(O)CCCCC2)C1` [I-D7, 1-((9-methoxy-3,4-dihydrobenzo[4,5]imidazo[1,2-a]pyrazin-2(1H)-yl)methyl)cyclohexan-1-ol], the Emax at dopamine D2 receptors [1] is 41%; on dopamine D2 receptors [2], 67%. The EC50 is 180 nM on dopamine D2 receptors [1] (setting [4]), 95.5 nM on dopamine D2 receptors [2] (setting [6]) and 79 nM at dopamine D2 receptors [2] (setting [5]).
